According to ChEMBL document CHEMBL3351419, “Orally bioavailable 6-chloro-7-methoxy-4(1H)-quinolones efficacious against multiple stages of Plasmodium” (J Med Chem, 2014):
Converted amounts (≈) assume the structure as drawn.

How the values were obtained:
Plasmodium falciparum [1] = assay: Antimalarial activity against multi-drug-resistant Plasmodium falciparum W2 infected in human type A+ erythrocytes assessed as growth inhibition after 72 hrs by SYBR Green I assay; type: functional, organism-based; conditions: W2, 72 h
J774 = assay: Cytotoxicity against mouse J774 cells after 72 hrs by CellTiter 96 assay; type: cell-based; conditions: J774, 72 h
[2] = Aqueous solubility of the compound at pH 7.4; type: physicochemical; conditions: buffer
Plasmodium berghei [3] = assay: Antimalarial activity against Plasmodium berghei ANKA expressing GFP infected in Balb/c mouse assessed as inhibition of parasitemia at 50 mg/kg, po qd administered as single dose on day 3 to 5 of exposure measured on day 6 post exposure by in vivo thomson test relative to control; type: functional
Plasmodium berghei [4] = assay: Antimalarial activity against Plasmodium berghei ANKA expressing GFP infected in Balb/c mouse assessed as inhibition of parasitemia at 10 mg/kg, po qd administered as single dose on day 3 to 5 of exposure measured on day 6 post exposure by in vivo thomson test relative to control; type: functional
Plasmodium berghei [5] = assay: Antimalarial activity against Plasmodium berghei ANKA expressing GFP infected in Balb/c mouse assessed as mouse survival at 50 mg/kg, po qd administered as single dose on day 3 to 5 of exposure measured on day 6 post exposure by in vivo thomson test relative to control; type: functional
Plasmodium berghei [6] = assay: Antimalarial activity against Plasmodium berghei ANKA expressing GFP infected in Balb/c mouse assessed as mouse survival at 10 mg/kg, po qd administered as single dose on day 3 to 5 of exposure measured on day 6 post exposure by in vivo thomson test relative to control; type: functional
Plasmodium berghei [7] = assay: Antimalarial activity against Plasmodium berghei ANKA expressing GFP infected in Balb/c mouse assessed as mouse cured from disease at 50 mg/kg, po qd administered as single dose on day 3 to 5 of exposure measured on day 30 post exposure by in vivo thomson test relative to control; type: functional
Plasmodium berghei [8] = assay: Antimalarial activity against Plasmodium berghei ANKA expressing GFP infected in Balb/c mouse assessed as mouse cured from disease at 10 mg/kg, po qd administered as single dose on day 3 to 5 of exposure measured on day 30 post exposure by in vivo thomson test relative to control; type: functional
[9] = octanol/water, pH 7.4
in vitro = conditions: pampa, pH 7.4
Description: (§2) Effective permeability of the compound at pH 7.4 by PAMPA

Plasmodium falciparum [10] = assay: Antimalarial activity against multi-drug-resistant Plasmodium falciparum TM90-C2B infected in human type A+ erythrocytes assessed as growth inhibition after 72 hrs by SYBR Green I assay; type: functional, organism-based
[11] = Resistance index, ratio of EC50 for multi-drug-resistant Plasmodium falciparum TM90-C2B infected in human type A+ erythrocytes to EC50 for multi-drug-resistant Plasmodium falciparum W2 infected in human type A+ erythrocytes; type: functional
[12] = Cytotoxicity index, ratio of EC50 for mouse J774 cells to EC50 for multi-drug-resistant Plasmodium falciparum TM90-C2B infected in human type A+ erythrocytes; type: toxicity, cell-based; conditions: read-out: Ratio EC50
Plasmodium berghei [13] = assay: Antimalarial activity against Plasmodium berghei ANKA expressing GFP infected in Balb/c mouse assessed as inhibition of parasitemia at 3 mg/kg, po qd administered as single dose on day 3 to 5 of exposure measured on day 6 post exposure by in vivo thomson test relative to control; type: functional
Plasmodium berghei [14] = assay: Antimalarial activity against Plasmodium berghei ANKA expressing GFP infected in Balb/c mouse assessed as inhibition of parasitemia at 1 mg/kg, po qd administered as single dose on day 3 to 5 of exposure measured on day 6 post exposure by in vivo thomson test relative to control; type: functional
Plasmodium berghei [15] = assay: Antimalarial activity against Plasmodium berghei ANKA expressing GFP infected in Balb/c mouse assessed as inhibition of parasitemia at 0.3 mg/kg, po qd administered as single dose on day 3 to 5 of exposure measured on day 6 post exposure by in vivo thomson test relative to control; type: functional
Plasmodium berghei [16] = assay: Antimalarial activity against Plasmodium berghei ANKA expressing GFP infected in Balb/c mouse assessed as mouse survival at 3 mg/kg, po qd administered as single dose on day 3 to 5 of exposure measured on day 6 post exposure by in vivo thomson test relative to control; type: functional
Plasmodium berghei [17] = assay: Antimalarial activity against Plasmodium berghei ANKA expressing GFP infected in Balb/c mouse assessed as mouse survival at 1 mg/kg, po qd administered as single dose on day 3 to 5 of exposure measured on day 6 post exposure by in vivo thomson test relative to control; type: functional
Plasmodium berghei [18] = assay: Antimalarial activity against Plasmodium berghei ANKA expressing GFP infected in Balb/c mouse assessed as mouse survival at 0.3 mg/kg, po qd administered as single dose on day 3 to 5 of exposure measured on day 6 post exposure by in vivo thomson test relative to control; type: functional
Plasmodium berghei [19] = assay: Antimalarial activity against Plasmodium berghei ANKA expressing GFP infected in Balb/c mouse assessed as mouse cured from disease at 3 mg/kg, po qd administered as single dose on day 3 to 5 of exposure measured on day 30 post exposure by in vivo thomson test relative to control; type: functional
[20] = pampa, pH 7.4
Description: as §2

Liver microsome [21] = assay: Half life in human liver microsomes at 1 uM by LC-MS analysis; type: ADME
Liver = assay: Half life in mouse liver microsomes at 1 uM by LC-MS analysis; type: ADME
Liver microsome [22] = assay: (§1) Intrinsic clearance in human liver microsomes at 1 uM by LC-MS analysis; type: ADME; conditions: microsomes, 1 µM
Rattus norvegicus = assay: Half life in Sprague-Dawley rat at 0.15 mg/kg, iv; type: ADME, organism-based; design: dose 0.15 mg/kg, route intravenous; conditions: in vivo
[23] = Plasma clearance in Sprague-Dawley rat at 0.15 mg/kg, iv; type: ADME, organism-based; design: dose 0.15 mg/kg, route intravenous
[24] = Volume of distribution in Sprague-Dawley rat at 0.15 mg/kg, iv; type: ADME, organism-based; design: dose 0.15 mg/kg, route intravenous; conditions: in vivo
[25] = Apparent oral bioavailability in Sprague-Dawley rat at 10 mg/kg; type: ADME, organism-based; conditions: in vivo
[26] = as §1; type: ADME; conditions: liver microsomes, read-out: CLH
Plasmodium berghei [27] = assay: Antimalarial activity against Plasmodium berghei ANKA expressing GFP infected in Balb/c mouse assessed as mouse survival at 30 mg/kg, po qd administered as single dose on day 3 to 5 of exposure measured on day 6 post exposure by in vivo thomson test relative to control; type: functional

SMILES	EC50 (Plasmodium falciparum [1]) [nM]	EC50 (J774) [nM]	solubility kinetic [2] [µM]	inhibition in vivo at 10 mg/kg (Plasmodium berghei [4]) [%]	mouse survival time at 50 mg/kg (Plasmodium berghei [5]) [days]	survival time at 10 mg/kg (Plasmodium berghei [6]) [days]	Activity (Plasmodium berghei [8]) [%]	logD [9]	EC50 (Plasmodium falciparum [10]) [nM]	Ratio EC50 [11]	selectivity ratio [12]	inhibition in vivo at 3 mg/kg (Plasmodium berghei [13]) [%]	survival time at 3 mg/kg (Plasmodium berghei [16]) [days]	Activity (Plasmodium berghei [19]) [%]	other results
COc1cc2[nH]c(C)c(-c3ccc(Cl)cc3C)c(=O)c2cc1Cl	14.2	> 28700	< 2	95	5	5	0	2.9	–	–	–	–	–	–	inhibition in vivo at 50 mg/kg (Plasmodium berghei [3]): 71%; Activity (Plasmodium berghei [7]): 0%; Papp (in vitro): 369 ×10⁻⁶ cm/s
COc1cc2[nH]c(C)c(-c3ccc(-c4ccc(C(F)(F)F)cc4F)nc3)c(=O)c2cc1Cl	0.602	> 21600	6 to 12 (≈ 2.78 to 5.55 µg/mL)	95.2	–	23	100	3.7	1.06	1.76	> 20400	96.3	23	100	inhibition in vivo at 1 mg/kg (Plasmodium berghei [14]): 94.5%; inhibition in vivo at 0.3 mg/kg (Plasmodium berghei [15]): 94.3%; survival at 1 mg/kg (Plasmodium berghei [17]): 23 days; survival at 0.3 mg/kg (Plasmodium berghei [18]): 23 days; Peff [20]: 1070 ×10⁻⁶ cm/s
COc1cc2[nH]c(C)c(-c3ccc(C(F)(F)F)cc3C)c(=O)c2cc1Cl	2.02	> 26200	< 2	80	0	6	0	2.7	0.578	0.29	> 45300	84	23	100	t1/2 (Liver microsome [21]): 3.93 h; Activity (Plasmodium berghei [7]): 0%
CCCCCCCc1c(C)nc2cc(OC)ccc2c1O	–	–	–	–	–	–	–	–	–	–	–	–	–	–	t1/2 (Liver): 7.9 min
CCc1c(C)[nH]c2cc(OC)c(Cl)cc2c1=O	–	–	–	–	–	–	–	–	–	–	–	–	–	–	CLint_mic (Liver microsome [22]): 56 µL/min/mg
COc1cc2[nH]c(C)c(-c3ccc(Oc4ccc(OC(F)(F)F)cc4)cc3F)c(=O)c2cc1Cl	3.74	> 20200	< 2	99.5	23	23	100	3.4	15.2	4.07	> 1330	99.3	23	100	inhibition in vivo at 50 mg/kg (Plasmodium berghei [3]): 99.2%; inhibition in vivo at 1 mg/kg (Plasmodium berghei [14]): 99.3%; survival at 1 mg/kg (Plasmodium berghei [17]): 23 days; Activity (Plasmodium berghei [7]): 100%; t1/2 (Rattus norvegicus): 32 h; clearance [23]: 0.3 mL/min/kg; Vd [24]: 0.7 L/kg; bioavailability [25]: 14%
COc1cc2[nH]c(C)c(-c3ccncc3)c(=O)c2cc1Cl	128	> 33300	–	–	–	–	–	–	219	1.71	> 152	–	–	–	CLint_mic (Liver microsome [22]): 15 µL/min/mg
COc1cc2[nH]c(C)c(-c3ccc(OCc4ccccc4)c(F)c3)c(=O)c2cc1Cl	73.4	> 23600	< 2	–	–	–	–	3.8	10.8	0.15	> 2180	–	–	–	t1/2 (Liver microsome [21]): 0.383 h
COc1cc2[nH]c(C)c(-c3ccc(F)cc3C)c(=O)c2cc1Cl	7.52	13600	< 2	–	–	–	–	2.7	8.07	1.07	1690	–	–	–	t1/2 (Liver microsome [21]): 1.93 h
COc1cc2[nH]c(C)c(-c3ccccc3)c(=O)c2cc1Cl	–	> 33400	–	–	0	–	–	–	–	0.59	> 2170	–	–	–	CLint_mic (Liver microsome [22]): 17 µL/min/mg; inhibition in vivo at 50 mg/kg (Plasmodium berghei [3]): < 1%
COc1cc2[nH]c(C)c(-c3ccc(-c4ccc(OC(F)(F)F)cc4)nc3)c(=O)c2cc1Cl	0.686	> 21700	6 to 12 (≈ 2.77 to 5.53 µg/mL)	97.3	–	23	100	3.7	2.03	2.95	> 10700	97.3	23	80	inhibition in vivo at 1 mg/kg (Plasmodium berghei [14]): 95.8%; inhibition in vivo at 0.3 mg/kg (Plasmodium berghei [15]): 93.9%; survival at 1 mg/kg (Plasmodium berghei [17]): 23 days; survival at 0.3 mg/kg (Plasmodium berghei [18]): 23 days
COc1cc2[nH]c(C)c(-c3cccnc3)c(=O)c2cc1Cl	748	> 33300	–	–	–	–	–	–	120	0.16	> 277	–	–	–	microsomal CLint at 1 µM [26]: 15 µL/min/mg
CCN(CC)Cc1cc(Nc2ccnc3cc(Cl)ccc23)ccc1O [AMODIAQUINE]	–	–	–	–	–	–	–	–	–	–	–	–	–	–	survival at 30 mg/kg (Plasmodium berghei [27]): 23 days
